The values below come from US20050009924A1 (priority 2003, published 2005).

Structures can show the parent of a compound that is named as a salt.

Data set [1] concerns iron-induced lipid peroxidation in rat brain homogenates. The data set is described as follows: Iron-induced lipid peroxidation in rat brain homogenates. Particulars: for Inhibition of LP(10 mM): mean percent inhibition (Table 3); for LP (%) (10 mM): relative percentage of inhibition (Table 1).
For data set [2], the system named is non-small-cell lung cancer cells H1299. The data set is described as follows: MTT relative viability, PhTERT-SEAP (H1299) cells. To be noted: PhTERT-SEAP(hTERT-H1299).
The test system of data set [3] is hepatitis B virus transfected hepatoma cell lines, HepG 2.2.15 cells. Nature of the data set: Cytotoxicity assay, 2.2.15 cells. In kind it is cell-based, human. To be noted: 48 h of drug exposure.
Data set [4] concerns transcriptional activity of hTERT. Nature of the data set: SEAP reporter assay of hTERT expression, PhTERT-SEAP (H1299). In kind it is cell-based, human. Particulars: PhTERT-SEAP(hTERT-H1299). The essentials:
(§1)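 SEAP activity, read as rate of 405 nm absorbance rise with 12 mM p-nitrophenyl phosphate in diethanolamine/MgCl2/homoarginine buffer after 65 °C, 10 min heat inactivation, reports hTERT or CMV promoter activity. G418-selected stable H1299 or hTERT-BJ1 reporter lines were exposed to drug for 24 h.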

A further data set has as its system human hepatoma G2 cells. The data set is described as follows: Cytotoxicity assay (XTT colorimetric), Hep G2. In kind it is cell-based. To be noted: 48 h of drug exposure.
The subject of data set [5] is transcriptional activity of hTERT. The data set is described as follows: SEAP reporter assay of hTERT expression, PhTERT-SEAP (hTERT-BJ1). In kind it is cell-based, human. To be noted: PhTERT-SEAP (hTERT-BJ1). The essentials:
as §1
On the technique in general: A reporter such as luciferase makes a cellular process visible.

In a further data set the test system is rat glioma C6 cells. The data set is described as follows: Cytotoxicity assay (XTT colorimetric), C6 cells. In kind it is cell-based. To be noted: 48 h of drug exposure.
The next data set concerns hTERT-BJ1 cells. Nature of the data set: MTT relative viability, PhTERT-SEAP (hTERT-BJ1) cells. To be noted: PhTERT-SEAP (hTERT-BJ1).

Protocol for hTERT-BJ1 cells: The tetrazolium reagent (MTT; 3-(4,5-di-methylthiazol)-2,5-diphenyl tetrazolium bromide, USB) was designed to yield a colored formazan upon metabolic reduction by viable cells. Approximately […] cells were plated onto each well of a 96-well plate and incubated in 5% CO2 at 37° C. for 24 h. To assess the in vitro cytotoxicity, each compound was dissolved in DMSO and prepared immediately before the experiments and was diluted into the complete medium before addition to cell cultures. Test compounds were then added to the culture medium for designated various concentrations. After 48 h, an amount of 25 μL of MTT was added to each well, and the samples were incubated at 37° C. for 4 h. A 100 μL solution of lysis buffer containing 20% SDS and 50% N,N-dimethylformamide was added to each well and incubated at 37° C. for another 16 h. The absorbency at 550 nm was measured using an ELISA reader.
Non small lung cancer cells H1299 (telomerase positive) were grown in RPMI 1640 media supplemented with 10% fetal bovine serum, 100 units/mL penicillin and 100 mg/mL streptomycin in a humidified atmosphere with 5% CO2 at 37° C. The hTERT immortalized hTERT-BJ1 (BD Biosciences Clontech)^39 were grown in DMEM media supplemented with 10% fetal calf serum, 100 units/mL penicillin and 100 mg/mL streptomycin, 1 mM sodium pyruvate, and 4 mM I-arginine in a humidified atmosphere with 5% CO2 at 37° C. Culture media were changed every 3 days. […] The stable clones derived from H1299 or hTERT-BJ1 were cultured using conditions that are similar to their parental cells.

For the compound `O=C1c2cccc(O)c2C(=O)c2cccc(O)c21` [Anthrarufin, 1,5-dihydroxyanthraquinone, reference compound], in data set [1] (10 mM), the “Inhibition of LP(10 mM)” value is −36 ± 1.1^ % and the “LP (%) (10 mM)” value is −36 ± 1.9%.
Consider `Cc1c(C)c2c(c(C)c1O)CC[C@@](C)(CCC[C@H](C)CCC[C@H](C)CCCC(C)C)O2` [(+)−α-Tocopherol, reference compound], for which the “Inhibition (%)” value in data set [1] (0.01 mM) worked out at 0%; in data set [1] (0.1 mM), 0%; in data set [1] (1 mM) it was 55 ± 1.7%; in data set [1] (10 mM), 100%. Besides, the “Inhibition of LP(10 mM)” value in data set [1] (10 mM) was greater than 100%. Moreover, the “LP (%) (10 mM)” value in data set [1] (10 mM) is reported as greater than 100%.
For the compound `O=C1c2c(O)ccc(O)c2C(=O)c2c(NCCNCCO)ccc(NCCNCCO)c21` [Mitoxantrone-HCl, reference compound], the “Inhibition (%)” value in data set [1] (0.01 mM) came to 5 ± 0.3%; in data set [1] (0.1 mM) it was 22 ± 3.5%; in data set [1] (1 mM), 54 ± 2.1%; in data set [1] (10 mM), 100%.
As to `O=C1O[C@H]([C@@H](O)CO)C(O)=C1O` [Ascorbic acid, reference compound], the “Inhibition (%)” value in data set [1] (0.01 mM) is on record as 10 ± 0.6%; in data set [1] (0.1 mM) it was 32 ± 1.2%; in data set [1] (1 mM) it was 75 ± 1.5%; in data set [1] (10 mM), 100%. The “Inhibition of LP(10 mM)” value in data set [1] (10 mM) is listed as greater than 100%. In data set [1] (10 mM), the “LP (%) (10 mM)” value was greater than 100%.
`O=C(Nc1ccc(NC(=O)c2ccc(Cl)cc2Cl)c2c1C(=O)c1ccccc1C2=O)c1ccc(Cl)cc1Cl` [VI8, 1,4-Bis(2,4-dichlorobenzoylamido)-9,10-anthracenedione]: the “Relative MTT viability (%)” value in data set [2] (1.7 μM) is reported as 106 ± 3.9%; in data set [2] (17 μM), 95 ± 1.3%; in data set [2] (171 μM), 83 ± 1.2%; in the data set with hTERT-BJ1 cells (1.7 μM), 102 ± 3.4%; in the data set with hTERT-BJ1 cells (17 μM), 98 ± 7.2%; in the data set with hTERT-BJ1 cells (171 μM), 76 ± 4.8%. The half-inhibitory concentration (IC50) (in data set [3]; with human hepatoma G2 cells; in the data set on rat glioma C6 cells) was greater than 20 µM throughout. Moreover, the “Relative SEAP activity (%)” value in data set [4] (1.7 μM) is 85 ± 7.9%; in data set [4] (17 μM), 84 ± 7.1%; in data set [4] (171 μM) it was 87 ± 2.6%; in data set [5] (1.7 μM), 33 ± 11.2%; in data set [5] (17 μM), 25 ± 17.2%; in data set [5] (171 μM), 39 ± 12.8%. The SEAP/vibility in data set [4] (1.7 μM) worked out at 0.80; in data set [4] (17 μM), 0.89; in data set [4] (171 μM), 1.06; in data set [5] (1.7 μM), 0.32; in data set [5] (17 μM) it was 0.26; in data set [5] (171 μM) it was 0.52.
As for `O=C(Nc1ccc(NC(=O)c2cccc(Cl)c2)c2c1C(=O)c1ccccc1C2=O)c1cccc(Cl)c1` [VI5, 1,4-Bis(3-chlorobenzoylamido)-9,10-anthracenedione], the “Relative MTT viability (%)” value in data set [2] (1.9 μM) is 95 ± 11.3%; in data set [2] (19 μM) it was 102 ± 8.5%; in data set [2] (194 μM) it was 59 ± 4.3%; with hTERT-BJ1 cells (1.9 μM), 99 ± 9.8%; in the data set with hTERT-BJ1 cells (19 μM) it was 90 ± 1.9%; in the data set with hTERT-BJ1 cells (194 μM) it was 60 ± 2.0%. Moreover, the half-maximal inhibitory concentration (IC50) (in data set [3]; with human hepatoma G2 cells; in the data set on rat glioma C6 cells) was greater than 20 µM each time. Also, the “Relative SEAP activity (%)” value was found to be 110 ± 4.9% in data set [4] (1.9 μM); 112 ± 6.1% in data set [4] (19 μM); 91 ± 3.0% in data set [4] (194 μM); 98 ± 10.1% in data set [5] (1.9 μM); 105 ± 8.8% in data set [5] (19 μM); 89 ± 10.1% in data set [5] (194 μM). Besides, the SEAP/vibility worked out at 1.17 in data set [4] (1.9 μM); 1.10 in data set [4] (19 μM); 1.55 in data set [4] (194 μM); 0.99 in data set [5] (1.9 μM); 1.17 in data set [5] (19 μM); 1.48 in data set [5] (194 μM).
`O=C(Nc1ccc(NC(=O)c2cccc(F)c2)c2c1C(=O)c1ccccc1C2=O)c1cccc(F)c1` [VI12, 1,4-Bis(3-fluorobenzoylamido)-9,10-anthracenedione]: the “Relative MTT viability (%)” value is 105 ± 6.8% in data set [2] (2.0 μM); 96 ± 7.4% in data set [2] (20 μM); 66 ± 5.5% in data set [2] (207 μM); 102 ± 1.5% in the data set on hTERT-BJ1 cells (2.0 μM); 97 ± 2.9% in the data set with hTERT-BJ1 cells (20 μM); 85 ± 2.6% in the data set on hTERT-BJ1 cells (207 μM). Also, the 50% inhibitory concentration (IC50) (in data set [3]; with human hepatoma G2 cells; in the data set on rat glioma C6 cells) was greater than 20 µM each time. In addition, the “Relative SEAP activity (%)” value in data set [4] (2.0 μM) is on record as 102 ± 2.9%; in data set [4] (20 μM), 110 ± 6.5%; in data set [4] (207 μM), 106 ± 9.4%; in data set [5] (2.0 μM), 107 ± 11.9%; in data set [5] (20 μM), 108 ± 15.5%; in data set [5] (207 μM), 95 ± 13.9%. In addition, the SEAP/vibility in data set [4] (2.0 μM) is 0.98; in data set [4] (20 μM), 1.14; in data set [4] (207 μM) it was 1.59; in data set [5] (2.0 μM), 1.05; in data set [5] (20 μM), 1.11; in data set [5] (207 μM), 1.12.
Take `O=C(Nc1ccc(NC(=O)c2ccc(F)cc2)c2c1C(=O)c1ccccc1C2=O)c1ccc(F)cc1` [VI30, 1,4-Bis(4-fluorobenzoylamido)-9,10-anthracenedione]: the “Relative MTT viability (%)” value in data set [2] (2.0 μM) was 110 ± 5.9%; in data set [2] (20 μM), 103 ± 6.6%; in data set [2] (207 μM) it was 89 ± 6.7%; in the data set with hTERT-BJ1 cells (2.0 μM) it was 103 ± 9.0%; in the data set on hTERT-BJ1 cells (20 μM), 107 ± 3.1%; in the data set with hTERT-BJ1 cells (207 μM), 83 ± 5.3%. Further, the IC50 (in data set [3]; in the data set on human hepatoma G2 cells; in the data set with rat glioma C6 cells) was greater than 20 µM in each case. Besides, the “Relative SEAP activity (%)” value turned out to be 111 ± 3.6% in data set [4] (2.0 μM); 107 ± 4.8% in data set [4] (20 μM); 107 ± 9.0% in data set [4] (207 μM); 104 ± 16.3% in data set [5] (2.0 μM); 101 ± 27.6% in data set [5] (20 μM); 100 ± 14.5% in data set [5] (207 μM). The SEAP/vibility in data set [4] (2.0 μM) came to 1.01; in data set [4] (20 μM), 1.04; in data set [4] (207 μM), 1.20; in data set [5] (2.0 μM) it was 1.01; in data set [5] (20 μM), 0.95; in data set [5] (207 μM), 1.20.
Turning to `NCC1CC1CCC(=O)Nc1ccc(NC(=O)CCC2CC2CN)c2c1C(=O)c1ccccc1C2=O` (stereo not drawn) [VI36, 1,4-Bis[2-(aminomnethyl)cyclopropanepropionamido]-9,10-anthracenedione], the “Relative MTT viability (%)” value was found to be 106 ± 4.1% in data set [2] (2.0 μM); 64 ± 5.1% in data set [2] (20 μM); 30 ± 4.7% in data set [2] (204 μM); 103 ± 6.4% with hTERT-BJ1 cells (2.0 μM); 92 ± 11.4% in the data set on hTERT-BJ1 cells (20 μM); 104 ± 17.4% in the data set on hTERT-BJ1 cells (204 μM). Also, the IC50 (in general, the concentration that inhibits the measured activity by half) in data set [3] turned out to be 3.46 µM; with human hepatoma G2 cells, 6.46 µM; in the data set with rat glioma C6 cells, 2.76 µM. The “Relative SEAP activity (%)” value is 123 ± 12.4% in data set [4] (2.0 μM); 112 ± 11.5% in data set [4] (20 μM); 80 ± 14.5% in data set [4] (204 μM); 91 ± 19.4% in data set [5] (2.0 μM); 95 ± 14.2% in data set [5] (20 μM); 65 ± 15.7% in data set [5] (204 μM). In addition, the SEAP/vibility in data set [4] (2.0 μM) is given as 1.16; in data set [4] (20 μM), 1.76; in data set [4] (204 μM), 2.71; in data set [5] (2.0 μM), 0.88; in data set [5] (20 μM), 1.03; in data set [5] (204 μM), 0.63.
